Assay results reported in ChEMBL document CHEMBL3774317, “Design and synthesis of novel tamoxifen analogues that avoid CYP2D6 metabolism” (Eur J Med Chem, 2016).

What was measured:
Type in all cases: functional
[1] = tested on: MDA-MB-231; assay: Cytotoxicity against human MDA-MB-231 cells assessed as cell growth at 10^-7 M after 48 hrs by SRB assay; settings: MDA-MB-231, 48 h, read-out: Activity
[2] = tested on: U-251; assay: Cytotoxicity against human U251 cells assessed as cell growth at 10^-5 M after 48 hrs by SRB assay; settings: U-251, 48 h, read-out: Activity
[3] = Cytotoxicity against human UACC62 cells assessed as cell growth at 10^-4 M after 48 hrs by SRB assay; settings: UACC-62, 48 h, read-out: Activity
[4] = tested on: NCI-H322M; assay: Cytotoxicity against human NCI-H322M cells assessed as cell growth at 10^-7 M after 48 hrs by SRB assay; settings: read-out: Activity
[5] = Cytotoxicity against human OVCAR8 cells assessed as cell growth at 10^-5 M after 48 hrs by SRB assay; settings: OVCAR-8, 48 h, read-out: Activity
[6] = tested on: NCI-H322M; assay: Cytotoxicity against human NCI-H322M cells assessed as cell growth at 10^-4 M after 48 hrs by SRB assay; settings: read-out: Activity
[7] = Cytotoxicity against human HOP92 cells assessed as cell growth at 10^-8 M after 48 hrs by SRB assay; settings: HOP-92, 48 h, read-out: Activity
[8] = Cytotoxicity against human DU145 cells assessed as cell growth at 10^-6 M after 48 hrs by SRB assay; settings: DU-145, 48 h, read-out: Activity
[9] = tested on: MDA-MB-468; assay: Cytotoxicity against human MDA-MB-468 cells assessed as cell growth at 10^-6 M after 48 hrs by SRB assay; settings: MDA-MB-468, 48 h, read-out: Activity
[10] = Cytotoxicity against human TK10 cells assessed as cell growth at 10^-8 M after 48 hrs by SRB assay; settings: TK-10, 48 h, read-out: Activity
[11] = tested on: NCI-H460; assay: Cytotoxicity against human NCI-H460 cells assessed as cell growth at 10^-4 M after 48 hrs by SRB assay; settings: NCI-H460, 48 h, read-out: Activity
[12] = tested on: K562; assay: Cytotoxicity against human K562 cells assessed as cell growth at 10^-5 M after 48 hrs by SRB assay; settings: K562, 48 h, read-out: Activity
[13] = Cytotoxicity against human RPMI8226 cells assessed as cell growth at 10^-8 M after 48 hrs by SRB assay; settings: RPMI-8226, 48 h, read-out: Activity
[14] = Cytotoxicity against human OVCAR3 cells assessed as cell growth at 10^-8 M after 48 hrs by SRB assay; settings: OVCAR-3, 48 h, read-out: Activity
[15] = tested on: SK-MEL-5; assay: Cytotoxicity against human SK-MEL-5 cells assessed as cell growth at 10^-6 M after 48 hrs by SRB assay; settings: SK-MEL-5, 48 h, read-out: Activity
[16] = Cytotoxicity against human NCI-ADR-RES cells assessed as cell growth at 10^-6 M after 48 hrs by SRB assay; settings: read-out: Activity
[17] = Cytotoxicity against human LOXIMVI cells assessed as cell growth at 10^-5 M after 48 hrs by SRB assay; settings: LOX IMVI, read-out: Activity
[18] = tested on: A498; assay: Cytotoxicity against human A498 cells assessed as cell growth at 10^-6 M after 48 hrs by SRB assay; settings: A498, 48 h, read-out: Activity
[19] = Cytotoxicity against human UO31 cells assessed as cell growth at 5 uM after 48 hrs by SRB assay; settings: UO-31, 48 h, read-out: Activity
[20] = Cytotoxicity against human HCC2998 cells assessed as cell growth at 50 uM after 48 hrs by SRB assay; settings: HCC 2998, 48 h, read-out: Activity
[21] = Cytotoxicity against human UO31 cells assessed as cell growth at 50 uM after 48 hrs by SRB assay; settings: UO-31, 48 h, read-out: Activity
[22] = tested on: NCI-H460; assay: Cytotoxicity against human NCI-H460 cells assessed as cell growth at 5 nM after 48 hrs by SRB assay; settings: NCI-H460, 48 h, read-out: Activity
[23] = Cytotoxicity against human HCT15 cells assessed as cell growth at 5 uM after 48 hrs by SRB assay; settings: HCT-15, 48 h, read-out: Activity
[24] = Cytotoxicity against human SKOV3 cells assessed as cell growth at 50 uM after 48 hrs by SRB assay; settings: SK-OV-3, 48 h, read-out: Activity
[25] = tested on: NCI-H522; assay: Cytotoxicity against human NCI-H522 cells assessed as cell growth at 50 nM after 48 hrs by SRB assay; settings: NCI-H522, 48 h, read-out: Activity
[26] = tested on: SK-MEL-5; assay: Cytotoxicity against human SK-MEL-5 cells assessed as cell growth at 5 uM after 48 hrs by SRB assay; settings: SK-MEL-5, 48 h, read-out: Activity
[27] = tested on: K562; assay: Cytotoxicity against human K562 cells assessed as cell growth at 50 nM after 48 hrs by SRB assay; settings: K562, 48 h, read-out: Activity
[28] = tested on: T47D; assay: Cytotoxicity against human T47D cells assessed as cell growth at 50 nM after 48 hrs by SRB assay; settings: read-out: Activity
[29] = Cytotoxicity against human OVCAR3 cells assessed as cell growth at 50 uM after 48 hrs by SRB assay; settings: OVCAR-3, 48 h, read-out: Activity
[30] = tested on: SK-MEL-2; assay: Cytotoxicity against human SK-MEL-2 cells assessed as cell growth at 50 nM after 48 hrs by SRB assay; settings: SK-MEL-2, 48 h, read-out: Activity
[31] = tested on: NCI-H226; assay: Cytotoxicity against human NCI-H226 cells assessed as cell growth at 5 nM after 48 hrs by SRB assay; settings: NCI-H226, 48 h, read-out: Activity
[32] = Cytotoxicity against human HCC2998 cells assessed as cell growth at 5 uM after 48 hrs by SRB assay; settings: HCC 2998, 48 h, read-out: Activity
[33] = Cytotoxicity against human HL-60(TB) cells assessed as cell growth at 50 nM after 48 hrs by SRB assay; settings: HL-60, 48 h, read-out: Activity
[34] = Cytotoxicity against human TK10 cells assessed as cell growth at 50 uM after 48 hrs by SRB assay; settings: TK-10, 48 h, read-out: Activity
[35] = tested on: ACHN; assay: Cytotoxicity against human ACHN cells assessed as cell growth at 50 nM after 48 hrs by SRB assay; settings: read-out: Activity
[36] = tested on: A549; assay: Cytotoxicity against human A549 cells assessed as cell growth at 5 nM after 48 hrs by SRB assay; settings: A549, 48 h, read-out: Activity
[37] = Cytotoxicity against human SKOV3 cells assessed as cell growth at 5 uM after 48 hrs by SRB assay; settings: SK-OV-3, 48 h, read-out: Activity
[38] = Cytotoxicity against human SF295 cells assessed as cell growth at 50 nM after 48 hrs by SRB assay; settings: SF-295, 48 h, read-out: Activity
[39] = tested on: 786-0; assay: Cytotoxicity against human 786-0 cells assessed as cell growth at 5 uM after 48 hrs by SRB assay; settings: 786-0, 48 h, read-out: Activity
[40] = Cytotoxicity against human HOP62 cells assessed as cell growth at 0.5 uM after 48 hrs by SRB assay; settings: HOP-62, 48 h, read-out: Activity
[41] = tested on: K562; assay: Cytotoxicity against human K562 cells assessed as cell growth at 5 nM after 48 hrs by SRB assay; settings: K562, 48 h, read-out: Activity

`C/C(=C(/c1ccc(O)cc1)c1ccc(OCCN2CCCC2)cc1)c1ccccc1` gave a growth at 0.1 µM [1] of 116%, a growth at 10 µM [2] of -33% and a growth at 100 µM [3] of -79%. For the same compound, the growth at 0.1 µM [4] was 95%, the growth at 10 µM [5] was 35% and the growth at 100 µM [6] was -91%. The growth at 0.01 µM [7] was 98%, the growth at 1 µM [8] was 94% and the growth at 1 µM [9] was 84%. The growth at 0.01 µM [10] was 96%, the growth at 100 µM [11] was -92% and the growth at 10 µM [12] was -38%. It also gave a growth at 0.01 µM [13] of 103%, a growth at 0.01 µM [14] of 106% and a growth at 1 µM [15] of 96%. The growth at 1 µM [16] was 91%, the growth at 10 µM [17] was -86% and the growth at 1 µM [18] was 66%.
Compound `CCCCCCCCCC(=O)Oc1ccc(/C(=C(/C)c2ccccc2)c2ccc(OCCN3CCCC3)cc2)cc1` has a growth at 5 µM [19] of 70%, a growth at 50 µM [20] of -77% and a growth at 50 µM [21] of -85%. For the same compound, the growth at 0.005 µM [22] was 102%, the growth at 5 µM [23] was 72% and the growth at 50 µM [24] was -88%. The growth at 0.05 µM [25] was 98%, the growth at 5 µM [26] was 90% and the growth at 0.05 µM [27] was 95%. It also gave a growth at 0.05 µM [28] of 62%, a growth at 50 µM [29] of -84% and a growth at 0.05 µM [30] of 101%. For the same compound, the growth at 0.005 µM [31] was 93%, the growth at 5 µM [32] was 90% and the growth at 0.05 µM [33] was 98%. It also gave a growth at 50 µM [34] of -87%, a growth at 0.05 µM [35] of 96% and a growth at 0.005 µM [36] of 101%. For the same compound, the growth at 5 µM [37] was 78%, the growth at 0.05 µM [38] was 89% and the growth at 5 µM [39] was 93%. For the same compound, the growth at 0.5 µM [40] was 81% and the growth at 0.005 µM [41] was 100%.
